1 compound from patent publication US20230026163A1, “ANTICANCER COMPOUND AND MEDICAL USE THEREOF” (ASCENTAWITS PHARMACEUTICALS, LTD., priority 2019, published 2023) can be followed below.

For one data set, the system named is AA8. As to the kind of experiment: Cytotoxicity on cell lines of different species: AA8. It counts as cell-based.
The next data set is described as follows: Plasma stability, rat. It counts as in vitro ADME. The method, then: (§1) Frozen plasma was melted immediately in a water bath at 37° C. […] The supernatants were collected into new tubes, respectively. pH values of the plasma were checked and recorded. Note: a, no more 2 times melted plasma was used since the sample was received; b, the plasma in pH 7 to pH 8 was used.
(§2) 1 mM of working solution of the test compounds and the control compound, propantheline, were prepared in DMSO. 1 mM of working solution of the control compound in […] was prepared in acetonitrile. 4 μL of the working solutions were added to 796 μL of pre-incubated plasma respectively to achieve a final concentration of 5 μM. The final concentration of solvent was 0.5%.
[…] The test was performed in duplicate. […] 50 μL of the labeled plasma was added to new tubes containing 300 μL of the quench solution of room temperature, i.e., the sample with a preparation time of 0. The samples were vortexed to mix for 5 minutes. […] 100 μL of the supernatant was transferred to new plates.

A short description of a further data set: Plasma stability, human. In kind it is in vitro ADME. The settings on record: 5 μM, 37° C., after 30 minutes. The method, then: as §1, §2
Aliquots of 50 μL of labelled plasma were transferred to new tubes and incubated in a water bath at 37° C. at approximately 60 rpm for 2 hours. The test was performed in duplicate. […] 50 μL of the labeled plasma was added to new tubes containing 300 μL of the quench solution of room temperature, i.e., the sample with a preparation time of 0. The samples were vortexed to mix for 5 minutes. […] 100 μL of the supernatant was transferred to new plates.

For the next data set, the system named is UV41 cell line. Briefly: Cytotoxicity on UV41 cell line with DNA repair gene mutation (2 hours exposure, AlamarBlue). In kind it is cell-based, Chinese hamster. The settings on record: Cricetulus griseus; UV41, 2 hours exposure, then 70 hours, normoxic. The method, then:
UV41 cell line is a derivative of CHO-AA8 cell line, derived from the UV-sensitive line of AA8. The cell line is a cell line with damaged homologous recombination DNA repair enzymes and damaged nucleotide excision repair enzymes caused by mutations in ERCC4/XPF gene of DNA.
Specifically, the exponentially growing cells were seeded in 96-well plates at a density of 4×10^3 cells/well and incubated at 37° C., in 5% CO2, 95% air, and 100% relative humidity. Next, 24 hours later, the test compounds were added. The test compounds were dissolved in 100% DMSO at 200 times the desired final test concentration. Upon addition of the test compounds, the test compounds were further diluted with the complete medium to 4 times the desired final concentration. Aliquots of 50 μL of the compounds at specific concentrations were added to the microwells containing 150 μL of medium to obtain the final compound concentrations as reported. After the test compounds were added, the plates were incubated for an addition 2 hours at 37° C., in 5% CO2, 95% air, and 100% relative humidity. Then, the compounds were washed off, and fresh medium was added to the plates. The plates were incubated for an addition 70 hours at 37° C., in 5% CO2, 95% air, and 100% relative humidity. At the end of this incubation, AlamarBlue reagent was used to quantify viable cells.

The subject of the next data set is H460. Briefly: Cytotoxicity on cell lines of different species: H460. It counts as cell-based. The settings on record: NCI-H460, 72 h; H460, Human; exposure time: 3 days.
Data set [1] deals with H460 non-small cell lung cancer. Briefly: Cytotoxicity test of human tumor cell line in vitro (CTG, 72 hours). In kind it is cell-based. The settings on record: Homo sapiens, NCI-H460; H460, 72 hours exposure. The protocol: IC50 values were obtained by the following methods. The cancer cells were exposed to various concentrations of compounds for 72 hours. Following by washing steps, fresh medium was added to allow the growth of the cancer cells. The cancer cells were stained to obtain cell viability. Then, comparisons were made with the medium-only control.
Specifically, the exponentially growing cells were seeded in 96-well plates at a density of 2×10^3 cells/well, and 100 μL/well. The cells were incubated for 24 hours at 37° C., in 5% CO2, in 95% air, and 100% relative humidity. Next, 99 μL of culture medium was added. The compounds were dissolved in 100% DMSO at 200 times the desired final test concentration. Upon addition of compounds, the compounds were further diluted to 4 times the desired final concentration with a complete medium. Aliquots of 1 μL of compounds at specific concentration were added to the micro-wells containing 199 μL of medium to obtain the final compound concentrations as reported. After the compounds were added, the plates were incubated for an addition 72 hours at 37° C., in 5% CO2, in 95% air, and 100% relative humidity.
The plates to be test containing the cells were equilibrated at room temperature for 30 minutes, and 100 μL of medium per well was discarded. 100 μL of CTG reagent (CelltiterGlo Kit) was added to each well. The plates were placed in a fast-shaker to shake for 2 minutes, and placed at room temperature for 30 minutes in the dark. Chemoluminescence signal values were read with Envision instrument.

Consider `O=[N+]([O-])c1ccc(C(OP(=O)(N2CC2)N2CC2)C(F)(F)F)c2ccccc12` (centres unmarked) [Compound 01], for which the IC50 in the data set with AA8 (CHO-AA8, 72 h, AA8, Rat, exposure time: 3 days) was determined as 11000 nM; in the data set with UV41 cell line it was 340 nM; in the data set on H460 it was 100 nM; in data set [1], 128 nM. Further, the “Multiple: Rat/Human” value in the data set with AA8 (IC50 AA8 / IC50 H460) is on record as 110. The Remaining percentage in the data set “Plasma stability, rat” (Rat plasma, 5 μM, 37° C., after 30 minutes) was 52.11%; in “Plasma stability, human” it was 68.68%. The “Stability in plasma (conclusion)” value in the data set “Plasma stability, rat” (rat) is listed as “relatively unstable”.
